Assay [1] has as its system M. tuberculosis H37Rv strain. In words: Tuberculostatic activity, test-tube successive dilution in Youmans' medium. In kind it is cell-based. The conditions noted are these: Mycobacterium tuberculosis.
In assay [2] the test system is M. tuberculosis wild-type strain sp. 192 fully sensitive. Described as above. The conditions noted are these: Mycobacterium tuberculosis. The format is cell-based.
Assay [3] concerns human non-small lung cancer cell line A549. Briefly: MTT viability assay. The format is cell-based. Conditions: 120 h. In general terms: Formazan colour is commonly taken as a measure of viable cells.
For the next assay, the system named is H37Rv. In words: Widened tuberculostatic tests. In kind it is cell-based, Mycobacterium.
The next assay deals with An5. Briefly: Widened tuberculostatic tests. The format is cell-based, Mycobacterium.
Another assay concerns Wells. In words: Widened tuberculostatic tests. The format is cell-based, Mycobacterium.
For another assay, the system named is Scrofulaceum. In words: Widened tuberculostatic tests. In kind it is cell-based, Mycobacterium.
The next assay concerns Intracellularum. Briefly: Widened tuberculostatic tests. In kind it is cell-based, Mycobacterium.
In the next assay the test system is Fortuitum. In words: Widened tuberculostatic tests. The format is cell-based, Mycobacterium.
The next assay relates to Kirchberg. Briefly: Widened tuberculostatic tests. In kind it is cell-based, Mycobacterium.
For the next assay, the system named is Kansasii. In words: Widened tuberculostatic tests. The format is cell-based, Mycobacterium.
Another assay deals with Smegmatis. In words: Widened tuberculostatic tests. The format is cell-based, Mycobacterium.
Another assay concerns Phlei. In words: Widened tuberculostatic tests. In kind it is cell-based, Mycobacterium.
For assay [4], the system named is A549 and HCT116 cell lines. Briefly: MTT cytotoxicity, summary statements without cell line. The format is cell-based. The conditions noted are these: Homo sapiens, read-out: IC 50 (ca., cell line not stated).

≈ marks a conversion by molar mass, not a printed value.

Regarding `COc1ccc(CC(=O)NN=C(SC)SC)cc1OC` [Compound 13, Dimethyl 2-(3,4-dimethoxyphenyl)acetylcarbonohydrazonodithioate], the MIC in assay [1] was found to be 25 mg/L (≈ 79.5 µM); in assay [2] it was 50 mg/L (≈ 159 µM).
In assay [3], `N.N.[Cl][Pt][Cl]` [Cis-Pt, Cisplatin] returned an IC50 of 0.63 ± 0.018 µM.
For `CSC(=NNC(=O)c1cccc(O)c1)SC` [Compound 9, Dimethyl 3-hydroxybenzoylcarbonohydrazonodithioate], the MIC was found to be 6.2 mg/L (≈ 24.2 µM) in assay [1]; 6.2 mg/L (≈ 24.2 µM) in assay [2]; 6.2 μg cm^−3 against H37Rv; 6.2 μg cm^−3 with An5; 6.2 μg cm^−3 with Wells; 25 μg cm^−3 against Scrofulaceum. The MIC in the assay on Intracellularum and in the assay on Fortuitum was 25 μg cm^−3 throughout.
On to `COc1ccc(C(=O)NN=C(SC)SC)cc1` [Compound 11, Dimethyl 4-methoxybenzoylcarbonohydrazonodithioate], for which the MIC in assay [1] and in assay [2] was 25 mg/L (≈ 92.5 µM) throughout.
As to `CSC(=NNC(=O)c1ccccc1[N+](=O)[O-])SC` [Compound 6, Dimethyl 2-nitrobenzoylcarbonohydrazonodithioate], the MIC in assay [1] came to 25 mg/L (≈ 87.6 µM); in assay [2], 50 mg/L (≈ 175 µM).
Consider `COc1cccc2c1C(=O)c1c(O)c3c(c(O)c1C2=O)C[C@@](O)(C(=O)CO)C[C@@H]3O[C@H]1C[C@H](N)[C@H](O)[C@H](C)O1` [Dox, doxotubicin], for which the IC50 in [3] was determined as 0.008 ± 0.0011 µM.
For the molecule `COc1cc(C(=O)NN=C(SC)SC)cc(OC)c1OC` [Compound 12, Dimethyl 3,4,5-trimethoxybenzoylcarbonohydrazonodithioate], the MIC in [1] was found to be 25 mg/L (≈ 75.7 µM); in assay [2], 50 mg/L (≈ 151 µM).
Regarding `CSC(=NNC(=O)c1ccc(Cl)cc1)SC` [Compound 3, Dimethyl 4-chlorobenzoylcarbonohydrazonodithioate], the MIC came out at 6.2 mg/L (≈ 22.6 µM) in assay [1]; 12.5 mg/L (≈ 45.5 µM) in assay [2]; 12.5 μg cm^−3 against H37Rv; 12.5 μg cm^−3 with An5; 12.5 μg cm^−3 against Wells; 25 μg cm^−3 in the assay with Kirchberg. Besides, the MIC with Kansasii amounted to 25 μg cm^−3; in the assay with Scrofulaceum, 100 μg cm^−3; against Intracellularum it was 50 μg cm^−3; against Fortuitum it was 100 μg cm^−3; in the assay on Smegmatis, 100 μg cm^−3; with Phlei it was 100 μg cm^−3.
For the molecule `CSC(=NNC(=O)c1ccccc1Cl)SC` [Compound 2, Dimethyl 2-chlorobenzoylcarbonohydrazonodithioate], the MIC in [1] and in assay [2] was 25 mg/L (≈ 91 µM) throughout.
For `CSC(=NNC(=O)c1ccc(Cl)c(Cl)c1)SC` [Compound 5, Dimethyl 3,4-dichlorobenzoylcarbonohydrazonodithioate], the MIC in assay [1] was 6.2 mg/L (≈ 20 µM); in assay [2] it was 3.1 mg/L (≈ 10 µM); in the assay with H37Rv it was 6.2 μg cm^−3; in the assay with An5, 12.5 μg cm^−3; with Wells it was 6.2 μg cm^−3; in the assay on Kirchberg it was 12.5 μg cm^−3. In addition, the MIC in the assay with Kansasii was determined as 6.2 μg cm^−3; against Scrofulaceum, 25 μg cm^−3; in the assay with Intracellularum it was 100 μg cm^−3; in the assay with Fortuitum, 100 μg cm^−3; in the assay with Smegmatis it was 100 μg cm^−3; in the assay on Phlei, 100 μg cm^−3. Moreover, the IC50 in assay [4] was ~30 µM.
For the molecule `CSC(=NNC(=O)c1ccc(O)cc1)SC` [Compound 10, Dimethyl 4-hydroxybenzoylcarbonohydrazonodithioate], the MIC in [1] is 3.1 mg/L (≈ 12.1 µM); in assay [2], 6.2 mg/L (≈ 24.2 µM); against H37Rv it was 6.2 μg cm^−3; in the assay with An5 it was 6.2 μg cm^−3; with Wells, 12.5 μg cm^−3; in the assay on Kirchberg, 50 μg cm^−3. For the same molecule, the MIC in the assay on Kansasii was found to be 25 μg cm^−3; in the assay on Scrofulaceum, 50 μg cm^−3; against Intracellularum, 100 μg cm^−3; with Fortuitum it was 100 μg cm^−3; in the assay on Smegmatis, 100 μg cm^−3; in the assay on Phlei it was 100 μg cm^−3. Moreover, in assay [4], the IC50 is ~100 µM.
For the molecule `CSC(=NNC(=O)c1ccc(Cl)cc1Cl)SC` [Compound 4, Dimethyl 2,4-dichlorobenzoylcarbonohydrazonodithioate], the MIC was 6.2 mg/L (≈ 20 µM) in [1]; 6.2 mg/L (≈ 20 µM) in [2]; 6.2 μg cm^−3 against H37Rv; 6.2 μg cm^−3 against An5; 12.5 μg cm^−3 in the assay with Wells; 25 μg cm^−3 against Kansasii. In addition, the MIC against Scrofulaceum came to 25 μg cm^−3.
Take `CSC(=NNC(=O)c1ccccc1O)SC` [Compound 8, Dimethyl 2-hydroxybenzoylcarbonohydrazonodithioate]: the MIC in assay [2] came out at 25 mg/L (≈ 97.5 µM).

Source of the values: publication PMC4494766 (Monatshefte Fur Chemie, 2011).
